Measured values taken from the NIST ThermoML archive (doi:10.1021/acs.jced.7b00060).
Several values for one entry are separate records, joined by “and”; a condition that tells them apart may be missing. Equal entries are not always repeated.

What was measured:
[1] = refractive index (Na D-line) (dimensionless); conditions: 101.33 kPa, Liquid, Standard Abbe refractometry
[2] = 101.33 kPa, Liquid; for electrical conductivity: Alternating current cell with electrodes; for viscosity: Falling or rolling sphere viscometry; for mass density: Vibrating tube method

CCCC[N+]1(C)CCCC1.N#CN=C=[N-] [1-butyl-1-methylpyrrolidinium dicyanamide]
Conditions | electrical conductivity, [2] | mass density, [2] | refractive index, [1] | viscosity, [2]
238.15 K | 0.0337 S/m | – | – | –
248.15 K | 0.081 S/m and 0.102 S/m | – | – | –
258.15 K | 0.166 S/m and 0.2 S/m | – | – | –
268.15 K | 0.299 S/m and 0.352 S/m | – | – | –
278.15 K | 0.49 S/m and 0.566 S/m | 1029 kg/m3 and 1024.78 kg/m3 | – | 95.5 mPa·s and 80.15 mPa·s
288.15 K | 0.746 S/m and 0.844 S/m | 1023.24 kg/m3 and 1019.06 kg/m3 | 1.4862 | 61.23 mPa·s and 51.72 mPa·s
293.15 K | – | – | 1.4853 | –
298.15 K | 1.07 S/m and 1.19 S/m | 1017.56 kg/m3 and 1013.4 kg/m3 | 1.4847 | 41.78 mPa·s and 35.85 mPa·s
303.15 K | – | – | 1.4842 | –
308.15 K | 1.46 S/m and 1.61 S/m | 1011.95 kg/m3 and 1007.81 kg/m3 | 1.4836 | 29.99 mPa·s and 25.93 mPa·s
313.15 K | – | – | 1.4832 | –
318.15 K | 1.92 S/m and 2.08 S/m | 1006.4 kg/m3 and 1002.27 kg/m3 | 1.4826 | 21.44 mPa·s and 19.43 mPa·s
323.15 K | – | – | 1.4818 | –
328.15 K | 2.44 S/m and 2.63 S/m | 1000.91 kg/m3 and 996.796 kg/m3 | 1.481 | 16.47 mPa·s and 15 mPa·s
333.15 K | – | – | 1.48 | –
338.15 K | 3.02 S/m and 3.23 S/m | 995.474 kg/m3 and 991.368 kg/m3 | 1.479 | 13.08 mPa·s and 11.84 mPa·s
343.15 K | – | – | 1.4779 | –
348.15 K | 3.88 S/m | 985.987 kg/m3 | – | 10.57 mPa·s and 9.634 mPa·s
358.15 K | 4.58 S/m | 980.656 kg/m3 | – | 8.801 mPa·s and 8.017 mPa·s
368.15 K | 5.32 S/m | – | – | 7.467 mPa·s and 6.774 mPa·s
378.15 K | 6.11 S/m | – | – | 6.444 mPa·s and 5.761 mPa·s
388.15 K | 6.93 S/m | – | – | 5.605 mPa·s and 5.001 mPa·s
398.15 K | 7.78 S/m | – | – | 4.956 mPa·s and 4.386 mPa·s
408.15 K | 8.67 S/m | – | – | 3.905 mPa·s
418.15 K | 9.57 S/m | – | – | –
428.15 K | 10.5 S/m | – | – | –
438.15 K | 11.4 S/m | – | – | –
448.15 K | 12.3 S/m | – | – | –

CCCCCCCC[N+](C)(CCCCCCCC)CCCCCCCC.O=C([O-])C(F)(F)F [methyltrioctylammonium trifluoroacetate]
[2]
Conditions | electrical conductivity [S/m] | mass density [kg/m3] | viscosity [mPa·s]
288.15 K | – | – | 3629
298.15 K | 0.00155 | 962.478 | 1551
303.15 K | – | 959.262 | –
308.15 K | 0.00329 | 956.054 | 735.2
313.15 K | – | 952.805 | –
318.15 K | 0.0063 | 949.626 | 380.8
323.15 K | – | 946.478 | –
328.15 K | 0.0112 | 943.335 | 212.1
333.15 K | – | 940.189 | –
338.15 K | 0.0185 | 937.046 | 126.7
343.15 K | – | 933.904 | –
348.15 K | 0.0293 | 930.772 | 79.97
353.15 K | – | 927.648 | –
358.15 K | 0.0444 | 924.529 | 53.33
363.15 K | – | 921.418 | –
368.15 K | 0.0647 | – | 36.92
378.15 K | 0.0924 | – | 26.69
388.15 K | 0.125 | – | 19.8
398.15 K | – | – | 15.03

CCCC[n+]1ccccc1.O=S(=O)([N-]S(=O)(=O)C(F)(F)F)C(F)(F)F [1-butylpyridinium bis[(trifluoromethyl)sulfonyl]imide]
Conditions | electrical conductivity, [2] [S/m] | mass density, [2] [kg/m3] | refractive index, [1] | viscosity, [2] [mPa·s]
278.15 K | 0.119 | 1467.88 | – | 182.1
283.15 K | – | – | 1.4474 | –
288.15 K | 0.206 | 1458.26 | 1.4459 | 100.9
293.15 K | – | – | 1.4444 | –
298.15 K | 0.326 | 1448.74 | 1.4429 | 61.39
303.15 K | – | – | 1.4414 | –
308.15 K | 0.483 | 1439.32 | 1.4399 | 40.14
313.15 K | – | – | 1.4384 | –
318.15 K | 0.677 | 1430.02 | 1.4369 | 27.9
323.15 K | – | – | 1.4354 | –
328.15 K | 0.909 | 1420.8 | 1.4339 | 20.36
333.15 K | – | – | 1.4324 | –
338.15 K | 1.17 | 1411.66 | 1.4309 | 15.42
343.15 K | – | – | 1.4294 | –
348.15 K | 1.47 | 1402.6 | – | 12.04
358.15 K | 1.8 | 1393.63 | – | 9.663
368.15 K | 2.16 | – | – | 7.904
378.15 K | 2.54 | – | – | –
388.15 K | 2.94 | – | – | –
398.15 K | 3.37 | – | – | –
418.15 K | 4.27 | – | – | –
438.15 K | 5.24 | – | – | –
